Legend:
Assay in all cases: relative viability (nuclei count vs DMSO), 5 days (fraction); higher = more cells survive
PC-14 = tested on: PC-14
Outline: (§1)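 Lung cancer cell lines in 1536-well plates got either a single drug or a fixed anchor-drug dose together with five library-drug doses (not always all listed) in √10 steps, by pin tool, on the day after seeding. Nuclei were counted after 5 days, and relative viability is the treated-to-vehicle ratio of nuclei counts. Values are medians of duplicate plates.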

H3255 = tested on: H3255
Outline: as §1

NCI-H520 = tested on: NCI-H520
Outline: as §1

NCI-H2405 = tested on: NCI-H2405
Outline: as §1

NCI-H23 = tested on: NCI-H23
Outline: as §1

NCI-H647 = tested on: NCI-H647
Outline: as §1

NCI-H1666 = tested on: NCI-H1666
Outline: as §1

NCI-H1915 = tested on: NCI-H1915
Outline: as §1

NCI-H2347 = tested on: NCI-H2347
Outline: as §1

NCI-H2126 = tested on: NCI-H2126
Outline: as §1

EPLC-272H = tested on: EPLC-272H
Outline: as §1

LC-2-ad = tested on: LC-2-ad
Outline: as §1

RERF-LC-KJ = tested on: RERF-LC-KJ
Outline: as §1

NCI-H661 = tested on: NCI-H661
Outline: as §1

NCI-H650 = tested on: NCI-H650
Outline: as §1

HCC-78 = tested on: HCC-78
Outline: as §1

201T = tested on: 201T
Outline: as §1

HCC-827 = tested on: HCC-827
Outline: as §1

COR-L 105 = tested on: COR-L 105
Outline: as §1

NCI-H2087 = tested on: NCI-H2087
Outline: as §1

ChaGo-K-1 = tested on: ChaGo-K-1
Outline: as §1

LCLC-97TM1 = tested on: LCLC-97TM1
Outline: as §1

## CCN(CC)CCCCNc1ncc2cc(-c3cc(OC)cc(OC)c3)c(NC(=O)NC(C)(C)C)nc2n1 + Nc1ncn([C@H]2C[C@H](O)[C@@H](CO)O2)c(=O)n1 [Decitabine] (partner 2 µM)
PC-14; first compound 0.01 µM
  relative viability: 0.239
PC-14; first compound 0.03162 µM
  relative viability: 0.298
PC-14; first compound 0.1 µM
  relative viability: 0.262
PC-14; first compound 0.3162 µM
  relative viability: 0.249
PC-14; first compound 1 µM
  relative viability: 0.228
H3255; first compound 0.01 µM
  relative viability: 0.453
H3255; first compound 0.1 µM
  relative viability: 0.65
H3255; first compound 0.3162 µM
  relative viability: 0.712
H3255; first compound 1 µM
  relative viability: 0.448
NCI-H520; first compound 0.01 µM
  relative viability: 0.51
NCI-H520; first compound 0.03162 µM
  relative viability: 0.466
NCI-H520; first compound 0.1 µM
  relative viability: 0.501
NCI-H520; first compound 0.3162 µM
  relative viability: 0.313
NCI-H520; first compound 1 µM
  relative viability: 0.202
NCI-H2405; first compound 0.01 µM
  relative viability: 0.778
NCI-H2405; first compound 0.03162 µM
  relative viability: 0.728
NCI-H2405; first compound 0.1 µM
  relative viability: 0.767
NCI-H2405; first compound 0.3162 µM
  relative viability: 0.765
NCI-H2405; first compound 1 µM
  relative viability: 0.702
NCI-H23; first compound 0.01 µM
  relative viability: 0.297
NCI-H23; first compound 0.03162 µM
  relative viability: 0.307
NCI-H23; first compound 0.1 µM
  relative viability: 0.292
NCI-H23; first compound 0.3162 µM
  relative viability: 0.355
NCI-H23; first compound 1 µM
  relative viability: 0.326
NCI-H647; first compound 0.01 µM
  relative viability: 0.429
NCI-H647; first compound 0.03162 µM
  relative viability: 0.383
NCI-H647; first compound 0.1 µM
  relative viability: 0.489
NCI-H647; first compound 0.3162 µM
  relative viability: 0.349
NCI-H647; first compound 1 µM
  relative viability: 0.361
NCI-H1666; first compound 0.01 µM
  relative viability: 0.695
NCI-H1666; first compound 0.03162 µM
  relative viability: 0.791
NCI-H1666; first compound 0.1 µM
  relative viability: 0.761
NCI-H1666; first compound 0.3162 µM
  relative viability: 0.759
NCI-H1666; first compound 1 µM
  relative viability: 0.79
NCI-H1915; first compound 0.01 µM
  relative viability: 0.24
NCI-H1915; first compound 0.03162 µM
  relative viability: 0.243
NCI-H1915; first compound 0.1 µM
  relative viability: 0.256
NCI-H1915; first compound 0.3162 µM
  relative viability: 0.242
NCI-H1915; first compound 1 µM
  relative viability: 0.266
NCI-H2347; first compound 0.01 µM
  relative viability: 0.573
NCI-H2347; first compound 0.03162 µM
  relative viability: 0.62
NCI-H2347; first compound 0.1 µM
  relative viability: 0.623
NCI-H2347; first compound 0.3162 µM
  relative viability: 0.626
NCI-H2347; first compound 1 µM
  relative viability: 0.578
NCI-H2126; first compound 0.01 µM
  relative viability: 0.555
NCI-H2126; first compound 0.03162 µM
  relative viability: 0.568
NCI-H2126; first compound 0.1 µM
  relative viability: 0.556
NCI-H2126; first compound 0.3162 µM
  relative viability: 0.603
NCI-H2126; first compound 1 µM
  relative viability: 0.63
EPLC-272H; first compound 0.01 µM
  relative viability: 0.384
EPLC-272H; first compound 0.1 µM
  relative viability: 0.359
EPLC-272H; first compound 0.3162 µM
  relative viability: 0.378
EPLC-272H; first compound 1 µM
  relative viability: 0.331
LC-2-ad; first compound 0.01 µM
  relative viability: 0.827
LC-2-ad; first compound 0.03162 µM
  relative viability: 0.81
LC-2-ad; first compound 0.1 µM
  relative viability: 0.823
LC-2-ad; first compound 0.3162 µM
  relative viability: 0.852
LC-2-ad; first compound 1 µM
  relative viability: 0.775
RERF-LC-KJ; first compound 0.01 µM
  relative viability: 0.697
RERF-LC-KJ; first compound 0.03162 µM
  relative viability: 0.687
RERF-LC-KJ; first compound 0.1 µM
  relative viability: 0.74
RERF-LC-KJ; first compound 0.3162 µM
  relative viability: 0.717
RERF-LC-KJ; first compound 1 µM
  relative viability: 0.603
NCI-H661; first compound 0.01 µM
  relative viability: 0.534
NCI-H661; first compound 0.03162 µM
  relative viability: 0.529
NCI-H661; first compound 0.1 µM
  relative viability: 0.572
NCI-H661; first compound 0.3162 µM
  relative viability: 0.573
NCI-H661; first compound 1 µM
  relative viability: 0.455
NCI-H650; first compound 0.01 µM
  relative viability: 0.14
NCI-H650; first compound 0.03162 µM
  relative viability: 0.272
NCI-H650; first compound 0.1 µM
  relative viability: 0.33
NCI-H650; first compound 0.3162 µM
  relative viability: 0.332
NCI-H650; first compound 1 µM
  relative viability: 0.326
HCC-78; first compound 0.01 µM
  relative viability: 0.697
HCC-78; first compound 0.03162 µM
  relative viability: 0.769
HCC-78; first compound 0.1 µM
  relative viability: 0.683
HCC-78; first compound 0.3162 µM
  relative viability: 0.666
HCC-78; first compound 1 µM
  relative viability: 0.636
201T; first compound 0.01 µM
  relative viability: 0.864
201T; first compound 0.03162 µM
  relative viability: 0.847
201T; first compound 0.1 µM
  relative viability: 0.86
201T; first compound 0.3162 µM
  relative viability: 0.857
201T; first compound 1 µM
  relative viability: 0.83
HCC-827; first compound 0.01 µM
  relative viability: 0.311
HCC-827; first compound 0.03162 µM
  relative viability: 0.369
HCC-827; first compound 0.1 µM
  relative viability: 0.346
HCC-827; first compound 0.3162 µM
  relative viability: 0.376
HCC-827; first compound 1 µM
  relative viability: 0.284
COR-L 105; first compound 0.01 µM
  relative viability: 0.591
COR-L 105; first compound 0.03162 µM
  relative viability: 0.777
COR-L 105; first compound 0.1 µM
  relative viability: 0.692
COR-L 105; first compound 0.3162 µM
  relative viability: 0.786
COR-L 105; first compound 1 µM
  relative viability: 0.669
NCI-H2087; first compound 0.01 µM
  relative viability: 0.314
NCI-H2087; first compound 0.03162 µM
  relative viability: 0.29
NCI-H2087; first compound 0.1 µM
  relative viability: 0.302
NCI-H2087; first compound 0.3162 µM
  relative viability: 0.284
NCI-H2087; first compound 1 µM
  relative viability: 0.317
ChaGo-K-1; first compound 0.01 µM
  relative viability: 0.563
ChaGo-K-1; first compound 0.03162 µM
  relative viability: 0.516
ChaGo-K-1; first compound 0.1 µM
  relative viability: 0.54
ChaGo-K-1; first compound 0.3162 µM
  relative viability: 0.539
ChaGo-K-1; first compound 1 µM
  relative viability: 0.51
LCLC-97TM1; first compound 0.01 µM
  relative viability: 0.269
LCLC-97TM1; first compound 0.03162 µM
  relative viability: 0.251
LCLC-97TM1; first compound 0.1 µM
  relative viability: 0.321
LCLC-97TM1; first compound 0.3162 µM
  relative viability: 0.272
LCLC-97TM1; first compound 1 µM
  relative viability: 0.255

From the supplement of paper PMC10307832
